Experiment: Approximate concentration of ionic species as function of pH according to the pKa values
Type: physicochemical
Description: There are four pKas for amifostine. The Merck Index lists them to be <2.0, 4.2, 9.0 and 11.7. The amino groups (2) and the phosphate group (2 pKa per group) can all be completely protonated. [Ref: Structure of Radio protective agent S-2(3-Aminoprpropylamino)ethylphosphorthioic acid (WR 2721) Jean Karle, Acta Cryst (1988) C44 135-138]. The usual form crystallized from solution is a double zwitterion with the phosphate completely dissociated (−2) and the amino groups fully protonated (+2). It is usually drawn with the amines in their free base form and the phosphate completely protonated but that is not how it exists in solution. So, the two pKa values from the double zwitterion are for the two amino functions ionizing (i.e., pKas 3 & 4). The first two pKas are for the phosphate which are perturbed by the two positive charges on the amino groups which pushes them lower than pKa1 and pKa2 for phosphoric acid. The following table describes the ionic nature of the compound as function of pH according to the pKa values reported in the Merck Index. The table also summarizes the approximate concentration of ionic species as function of pH:
At pH 9.0, 50% of the amifostine is present as the double zwitterion and 50% of amine 1 (primary amine) is present as the free base form making 50% of the amifostine have a net negative charge. At pH 10.0, only 10% of amifostine is present as a double zwitterion and the other 90% has a net negative charge; amine 1 is mainly in the free base form. […] Approximately 1% is present as the double zwitterion. More importantly, 17% of amifostine has both amines in the un-ionized form as free bases and this particular ionic species of the molecule carries about −2 charge. At this pH (11), it is observed that there is a significant improvement in the stability. […] At pH 13, over 95% of the amifostine is present with both amines in their free base forms with improved stability.

SMILES: NCCCNCCSP(=O)(O)O [amifostine, S-2(3-Aminoprpropylamino)ethylphosphorthioic acid]
- Prim. amine (pKa 9.0) Protonated (pH 7): ~100%
- Prim. amine (pKa 9.0) Unprotonated (pH 7): ~0%
- Sec. amine (pKa 11.7) Protonated (pH 7): ~100%
- Sec. amine (pKa 11.7) Unprotonated (pH 7): ~0%
- Prim. amine (pKa 9.0) Protonated (pH 9): ~50%
- Prim. amine (pKa 9.0) Unprotonated (pH 9): ~50%
- Sec. amine (pKa 11.7) Protonated (pH 9): ~100%
- Sec. amine (pKa 11.7) Unprotonated (pH 9): ~0%
- amine 1 present as free base form, net negative charge (pH 9.0): 50%
- present as the double zwitterion (pH 9.0): 50%
- Prim. amine (pKa 9.0) Protonated (pH 10): ~10%
- Prim. amine (pKa 9.0) Unprotonated (pH 10): ~90%
- Sec. amine (pKa 11.7) Protonated (pH 10): ~100%
- Sec. amine (pKa 11.7) Unprotonated (pH 10): ~0%
- has a net negative charge (amine 1 free base) (pH 10.0): 90%
- present as a double zwitterion (pH 10.0): 10%
- Prim. amine (pKa 9.0) Protonated (pH 11): ~1%
- Prim. amine (pKa 9.0) Unprotonated (pH 11): ~99%
- Sec. amine (pKa 11.7) Protonated (pH 11): ~83%
- Sec. amine (pKa 11.7) Unprotonated (pH 11): ~17%
- both amines in the un-ionized form as free bases (about -2 charge) (pH 11.5 solution): 17%
- present as the double zwitterion (pH 11.5 solution): Approximately 1%
- Prim. amine (pKa 9.0) Protonated (pH 12): ~0.1%
- Prim. amine (pKa 9.0) Unprotonated (pH 12): >99.9%
- Sec. amine (pKa 11.7) Protonated (pH 12): ~33%
- Sec. amine (pKa 11.7) Unprotonated (pH 12): ~67%
- Prim. amine (pKa 9.0) Protonated (pH 13): ~0.01%
- Prim. amine (pKa 9.0) Unprotonated (pH 13): 99.99%^
- Sec. amine (pKa 11.7) Protonated (pH 13): <5%
- Sec. amine (pKa 11.7) Unprotonated (pH 13): >95%
- present with both amines in their free base forms (pH 13): over 95%

— patent US8815833B2, “Stable amifostine liquid concentrate” (Seidose, LLC, priority 2006, dated 2014)
